Data reported in patent publication US20150342853A1, “Topical Lightening Composition and Methods of Use Thereof” (Avon Products, Inc., priority 2014, published 2015).

Experiment: in vitro test of lightening of synthetic melanin (absorbance at 405 nm)
Type: biochemical
Settings: melanin absorbance at 405 nm relative to vehicle control, two weeks
Method: Fabiana imbricata extract (having between 15,000 and 30,000 units/g of glucose oxidase activity) was examined for its ability to lighten melanin in an in vitro test. A solution of synthetic melanin at a concentration of 0.025% in dimethyl sulfoxide was prepared. 1 ml was added to each well of a 24-well plate. A 1% stock solution of Fabiana imbricata extract was prepared in phosphate-buffered saline and diluted serially at a ratio of 1:2 yielding 0.5%, 0.25% and 0.125% solutions of Fabiana imbricata extract. Solutions of glucose were prepared similarly. 10 microliters of each concentration of Fabiana imbricata extract was added along with 10 microliters of glucose to 1 ml of the melanin solution in each well of the microplate. Each concentration was tested in triplicate. Three wells received the phosphate-buffered saline as vehicle control. Hydrogen peroxide at 0.3, 0.03 and 0.003% was added to 3 wells each as positive control. The microplate was incubated at room temperature and treatments described above were repeated for a total of ten times over two weeks. At the end of the incubation period, melanin absorbance was measured at 405 nm using a spectrophotometer. Results are summarized in the table below as percent of melanin absorbance relative to vehicle control. A lower absorbance indicates lightening of melanin.

OO [Example H2O2, Hydrogen peroxide]
% Relative Absorbance (0.003% H2O2 positive control): 87.5% | % Relative Absorbance (0.03% H2O2 positive control): 70.6% | % Relative Absorbance (0.3% H2O2 positive control): 30.6%
